In patent publication US20250313548A1 (Actio Biosciences, Inc., priority 2023, published 2025):

Target: human, KCNT1 (Homo sapiens (Human), UniProt Q5JUK3)
Test: FLIPR Tl/K Flux Assay
Format: cell-based
Settings: HEK293 cells stably expressing human KCNT1; Tl+ flux stimulated with EC80 of agonist Loxapine
Procedure: HEK293 cells stably expressing human, KCNT1 were cultured in DMEM, 10% FBS, 100 U/mL penicillin-streptomycin and […] puromycin for selection purposes. One day before the assay, cells were detached using TrypLE™ Express and counted using a cell counter. Only cells with >85% viability were used for the assay. […] The cells were incubated overnight at 37° C., 5% (v/v) CO2.
On the day of the assay, the reagents were prepared following the FLIPR® Potassium Assay Kit manual: prepare 2× dye solution, dilute the dye with assay buffer (20 mM HEPES in 1× HBSS, PH7.4), addition of probenecid to a final concentration of 5 mM, and vortexed vigorously for 1-2 minutes. The cell plate was flicked to remove medium and tapped on paper towels to remove excess media. […] The cell plate was moved to a plate shaker, agitated at 600 rpm for two minutes, and then incubated at 25° C. for one hour.
The compounds were prepared in DMSO and transferred to a 384-well compound plate (PP, low binding), referred to as a source plate. Reference agonist (300 nM) compound and test inhibitor (10 mM) compounds were added to the compound plate and a 4-fold serial dilution was performed in DMSO. Using an ECHO dispenser, compounds were dispensed at 90 nL/well from the source plate to a 384-well compound plate (PP, low binding). After the dispensing was complete, 30 µL/well assay buffer was added to the compound plate and mixed for two minutes on a plate shaker. The cell plate, compound plate, and tips were loaded into the FLIPR instrument, and a transfer of 10 μl of 3× compound to the cell plate was initiated. The treated cell plate was kept at in the dark at 25° C. for 30 minutes. Chloride-free stimulation buffer containing 4× 2 mM Tl+ and 4×EC80 of agonist Loxapine was loaded into a 384-well compound plate (PP, low binding). After the 30-minute incubation, the cell plate, compound plate containing stimulation buffer, and FLIPR tips were loaded into the FLIPR instrument. After a baseline read, the FLIPR initiates a transfer of 10 μL of stimulation buffer containing Loxapine to the cell plate. The plate was read for 160 sec with 1 second interval reads to obtain the data.
The normalized fluorescence reading (RFU) was calculated as shown follow, while Fmax and Fmin stand for maximum and minimum of signal during defined time window. The IC50 was calculated by fitting % inhibition against log of compound concentrations with Hill equation using XLfit.

Sequence of human, KCNT1 (Q5JUK3 whole entry): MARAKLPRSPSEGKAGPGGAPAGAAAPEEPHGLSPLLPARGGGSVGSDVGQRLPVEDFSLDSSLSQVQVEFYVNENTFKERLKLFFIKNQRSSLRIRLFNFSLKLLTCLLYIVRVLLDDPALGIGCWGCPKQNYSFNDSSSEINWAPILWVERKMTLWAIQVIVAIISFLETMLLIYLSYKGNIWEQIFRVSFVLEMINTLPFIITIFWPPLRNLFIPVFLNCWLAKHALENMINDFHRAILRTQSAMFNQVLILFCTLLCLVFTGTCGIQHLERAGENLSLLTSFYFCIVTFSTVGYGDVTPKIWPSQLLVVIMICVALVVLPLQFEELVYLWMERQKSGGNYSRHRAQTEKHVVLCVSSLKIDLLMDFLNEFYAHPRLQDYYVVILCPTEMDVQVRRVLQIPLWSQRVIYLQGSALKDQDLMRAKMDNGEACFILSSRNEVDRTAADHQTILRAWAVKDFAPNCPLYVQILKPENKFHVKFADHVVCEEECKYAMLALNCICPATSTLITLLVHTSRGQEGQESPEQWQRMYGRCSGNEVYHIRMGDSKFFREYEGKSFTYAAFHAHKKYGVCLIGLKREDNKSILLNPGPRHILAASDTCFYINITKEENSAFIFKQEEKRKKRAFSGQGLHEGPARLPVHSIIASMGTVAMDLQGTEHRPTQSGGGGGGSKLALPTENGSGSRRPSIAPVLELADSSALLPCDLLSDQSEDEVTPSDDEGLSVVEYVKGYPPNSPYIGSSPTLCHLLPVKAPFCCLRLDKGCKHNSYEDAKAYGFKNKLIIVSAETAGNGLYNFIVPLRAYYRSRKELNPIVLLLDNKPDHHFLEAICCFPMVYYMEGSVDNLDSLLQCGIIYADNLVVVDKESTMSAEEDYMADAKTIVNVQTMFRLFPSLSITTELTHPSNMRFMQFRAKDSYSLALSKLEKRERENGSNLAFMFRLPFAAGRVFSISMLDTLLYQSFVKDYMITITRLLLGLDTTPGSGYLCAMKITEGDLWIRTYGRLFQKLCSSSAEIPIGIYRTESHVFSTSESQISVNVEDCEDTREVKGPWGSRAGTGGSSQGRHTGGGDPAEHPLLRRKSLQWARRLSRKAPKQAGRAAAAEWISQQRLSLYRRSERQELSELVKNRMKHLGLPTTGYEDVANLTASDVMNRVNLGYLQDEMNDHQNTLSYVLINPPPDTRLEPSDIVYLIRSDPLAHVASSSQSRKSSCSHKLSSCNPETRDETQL

Row | IC50 [nM] | Compound
1 | < 250 | Cn1nc(C(F)(F)F)cc1C(=O)N[C@H]1CCc2nc(-c3ccnc(C(F)(F)F)c3)ccc21 [Compound I-134a, (S)-1-Methyl-3-(trifluoromethyl)-N-(2-(2-(trifluoromethyl)pyridin-4-yl)-6,7-dihydro-5H-cyclopenta[b]pyridin-5-yl)-1H-pyrazole-5-carboxamide]
2 | 250 to 500 | COc1cc(-c2nc3c(o2)[C@@H](NC(=O)c2cncc(C(F)(F)F)n2)CCC3)c(F)cn1 [Compound I-173a]
3 | < 250 | Cn1nc(C(F)(F)F)nc1C(=O)N[C@H]1CCn2nc(-c3ccnc(C(F)(F)F)c3)cc21 [Compound I-314a, (S)-1-Methyl-3-(trifluoromethyl)-N-(2-(2-(trifluoromethyl)pyridin-4-yl)-5,6-dihydro-4H-pyrrolo[1,2-b]pyrazol-4-yl)-1H-1,2,4-triazole-5-carboxamide]
4 | > 1000 | Cn1nc(C(F)(F)F)cc1C(=O)N[C@H]1CCc2nn(-c3ccnc(C(C)(C)O)c3)cc21 [Compound I-76a]
5 | < 250 | O=C(N[C@H]1CCn2nc(-c3cc(C(F)(F)F)ncc3F)cc21)C12CC(CC(F)F)(C1)C2 [Compound I-558a, (S)-3-(2,2-Difluoroethyl)-N-(2-(5-fluoro-2-(trifluoromethyl)pyridin-4-yl)-5,6-dihydro-4H-pyrrolo[1,2-b]pyrazol-4-yl)bicyclo[1.1.1]pentane-1-carboxamide]
6 | < 250 | COc1cc(-c2nc3c(o2)[C@@H](NC(=O)c2cccc(OC(F)(F)F)c2)CCC3)c(Cl)cn1 [Compound I-164a, (S)-N-(2-(5-Chloro-2-methoxypyridin-4-yl)-4,5,6,7-tetrahydrobenzo[d]oxazol-7-yl)-3-(trifluoromethoxy)benzamide]
7 | < 250 | Cc1cc(C(=O)N[C@H]2CCCn3nc(-c4ccnc(C(F)(F)F)c4)cc32)n(-c2ccccc2)n1 [Compound I-448a]
8 | > 1000 | Cn1nc(C(F)(F)F)cc1C(=O)N[C@@H]1CCc2nn(-c3ccnc(OC(F)F)c3)cc21 [Compound I-74b]
9 | > 1000 | Cn1nc(C(F)(F)F)cc1C(=O)N[C@@H]1CCCc2sc(-c3ccnc(C(F)(F)F)c3)nc21 [Compound I-80b]
10 | < 250 | O=C(N[C@H]1CCc2nn(-c3ccnc(C(F)(F)F)c3)cc21)c1cnn(C(F)(F)F)c1 [Compound I-566a, (S)-1-(Trifluoromethyl)-N-(2-(2-(trifluoromethyl)pyridin-4-yl)-2,4,5,6-tetrahydrocyclopenta[c]pyrazol-4-yl)-1H-pyrazole-4-carboxamide]
11 | < 250 | Cn1nc(C(F)(F)F)cc1C(=O)NC1CCCn2nc(-c3ccnc(C(F)(F)F)c3)cc21 (racemic) [Compound I-42, (rac)-1-Methyl-3-(trifluoromethyl)-N-(2-(2-(trifluoromethyl)pyridin-4-yl)-4,5,6,7-tetrahydropyrazolo[1,5-a]pyridin-4-yl)-1H-pyrazole-5-carboxamide]
12 | < 250 | COc1cc(-c2cc3n(n2)CCCC[C@@H]3NC(=O)c2cc(C(F)(F)F)nn2C)c(F)cn1 [Compound I-212a, (S)-N-(2-(5-Fluoro-2-methoxypyridin-4-yl)-5,6,7,8-tetrahydro-4H-pyrazolo[1,5-a]azepin-4-yl)-1-methyl-3-(trifluoromethyl)-1H-pyrazole-5-carboxamide]
13 | < 250 | COc1cc(-c2cc3n(n2)CCC[C@@H]3NC(=O)c2cccc(C#N)c2)c(C)cn1 [Compound I-222a, (S)-3-Cyano-N-(2-(2-methoxy-5-methylpyridin-4-yl)-4,5,6,7-tetrahydropyrazolo[1,5-a]pyridin-4-yl)benzamide]
14 | < 250 | Cc1cnc(C(F)(F)F)cc1-c1cc2n(n1)CC[C@@H]2NC(=O)c1cc(C(F)(F)F)nn1C [Compound I-236a, (S)-1-Methyl-N-(2-(5-methyl-2-(trifluoromethyl)pyridin-4-yl)-5,6-dihydro-4H-pyrrolo[1,2-b]pyrazol-4-yl)-3-(trifluoromethyl)-1H-pyrazole-5-carboxamide]
15 | < 250 | COc1cc(C#N)cc(C(=O)N[C@H]2CCCn3nc(-c4ccnc(C(F)(F)F)c4)cc32)c1 [Compound I-341a, (S)-3-Cyano-5-methoxy-N-(2-(2-(trifluoromethyl)pyridin-4-yl)-4,5,6,7-tetrahydropyrazolo[1,5-a]pyridin-4-yl)benzamide]
16 | < 250 | CCOc1cc(F)cc(C(=O)N[C@H]2CCCn3nc(-c4ccnc(C(F)(F)F)c4)cc32)c1 [Compound I-579a]

Row | IC50 [nM] | Compound
17 | < 250 | COC12CC(C(=O)N[C@H]3CCn4nc(-c5cc(C(F)(F)F)ncc5F)cc43)(C1)C2 [Compound I-525a, (S)-N-(2-(5-Fluoro-2-(trifluoromethyl)pyridin-4-yl)-5,6-dihydro-4H-pyrrolo[1,2-b]pyrazol-4-yl)-3-methoxybicyclo[1.1.1]pentane-1-carboxamide]
18 | < 250 | COc1cc(-n2cc3c(n2)CCCC[C@@H]3NC(=O)c2cccc(C)c2)ccn1 [Compound I-376a]
19 | < 250 | O=C(N[C@H]1CCn2nc(-c3cc(C(F)(F)F)ncc3F)cc21)C1CC2(CC2)C1 [Compound I-522a, (S)—N-(2-(5-Fluoro-2-(trifluoromethyl)pyridin-4-yl)-5,6-dihydro-4H-pyrrolo[1,2-b]pyrazol-4-yl)spiro[2.3]hexane-5-carboxamide]
20 | < 250 | CCc1cc(C#N)cc(C(=O)N[C@H]2CCc3nn(-c4ccnc(C(F)(F)F)c4)cc32)c1 [Compound I-246a, (S)-3-Cyano-5-ethyl-N-(2-(2-(trifluoromethyl)pyridin-4-yl)-2,4,5,6-tetrahydrocyclopenta[c]pyrazol-4-yl)benzamide]
21 | < 250 | Cn1nc(OC2CC2)cc1C(=O)N[C@H]1CCCn2nc(-c3ccnc(C(F)(F)F)c3)cc21 [Compound I-370a]
22 | < 250 | O=C(NC1CCCc2nn(-c3ccnc(C(F)(F)F)c3)cc21)c1ccc(C(F)(F)F)cc1 (racemic) [Compound I-16, (rac)-4-(Trifluoromethyl)-N-(2-(2-(trifluoromethyl)pyridin-4-yl)-4,5,6,7-tetrahydro-2H-indazol-4-yl)benzamide]
23 | < 250 | Cn1nc(C(F)(F)F)nc1C(=O)N[C@H]1CCCc2oc(-c3ccnc(C(F)(F)F)c3)nc21 [Compound I-241a, (S)-1-Methyl-3-(trifluoromethyl)-N-(2-(2-(trifluoromethyl)pyridin-4-yl)-4,5,6,7-tetrahydrobenzo[d]oxazol-4-yl)-1H-1,2,4-triazole-5-carboxamide]
24 | < 250 | N#Cc1cc(Cl)cc(C(=O)N[C@H]2CCCn3nc(-c4ccnc(C(F)(F)F)c4)cc32)c1 [Compound I-458a]
25 | > 1000 | CN(C(=O)c1cc(C(F)(F)F)nn1C)[C@H]1CCCc2nn(-c3ccnc(C(F)(F)F)c3)cc21 [Compound I-37a, (S)—N,1-Dimethyl-3-(trifluoromethyl)-N-(2-(2-(trifluoromethyl)pyridin-4-yl)-4,5,6,7-tetrahydro-2H-indazol-4-yl)-1H-pyrazole-5-carboxamide]
26 | < 250 | Cn1nc(C(F)(F)F)cc1C(=O)N[C@H]1CCc2nn(-c3ccnc(C(C)(F)F)c3)cc21 [Compound I-77a, (S)—N-(2-(2-(1,1-Difluoroethyl)pyridin-4-yl)-2,4,5,6-tetrahydrocyclopenta[c]pyrazol-4-yl)-1-methyl-3-(trifluoromethyl)-1H-pyrazole-5-carboxamide]
27 | 500 to 1000 | Cc1cc(C)cc(C(=O)N[C@@H]2CCc3nn(-c4ccnc(C(F)(F)F)c4)cc32)c1 [Compound I-372b]
28 | < 250 | O=C(N[C@H]1CCn2nc(-c3ccnc(C(F)(F)F)c3)cc21)[C@@H]1C[C@@H]1C(F)(F)F [I-487^, (1R,2S)-2-(trifluoromethyl)-N—((S)-2-(2-(trifluoromethyl)pyridin-4-yl)-5,6-dihydro-4H-pyrrolo[1,2-b]pyrazol-4-yl)cyclopropane-1-carboxamide]
29 | < 250 | CCOc1cc(-c2cc3n(n2)CC[C@@H]3NC(=O)c2cc(C(F)(F)F)nn2C)ccn1 [Compound I-254a, (S)-N-(2-(2-Ethoxypyridin-4-yl)-5,6-dihydro-4H-pyrrolo[1,2-b]pyrazol-4-yl)-1-methyl-3-(trifluoromethyl)-1H-pyrazole-5-carboxamide]
30 | < 250 | O=C(N[C@H]1CCn2nc(-c3ccnc(C(F)(F)F)c3)cc21)C12CC(C(F)(F)F)(C1)C2 [Compound I-138a, (S)-3-(Trifluoromethyl)-N-(2-(2-(trifluoromethyl)pyridin-4-yl)-5,6-dihydro-4H-pyrrolo[1,2-b]pyrazol-4-yl)bicyclo[1.1.1]pentane-1-carboxamide]
31 | < 250 | Cn1nc(C(F)(F)F)cc1C(=O)N[C@H]1CCc2nn(-c3ccnc(OC(F)F)c3)cc21 [Compound I-74a]
